Target: Histone deacetylase 1 (Homo sapiens, UniProt Q13547)
Experiment: Enzyme Assay: Compounds for testing were diluted in DMSO to 50 fold the final concentration and a ten point three fold dilution series was made. The compounds were diluted in assay buffer (50 mM HEPES, pH 7.4, 100 mM KCl, 0.001% Tween-20, 0.05% BSA, 20 μM tris(2-carboxyethyl)phosphine) to 6 fold their final concentration. The HDAC enzymes (purchased from BPS Biosciences) were diluted to 1.5 fold their final concentration in assay buffer and pre-incubated with the compounds for 24 hours prior to addition of the substrate.

Histone deacetylase 1, sequence (Q13547 whole entry): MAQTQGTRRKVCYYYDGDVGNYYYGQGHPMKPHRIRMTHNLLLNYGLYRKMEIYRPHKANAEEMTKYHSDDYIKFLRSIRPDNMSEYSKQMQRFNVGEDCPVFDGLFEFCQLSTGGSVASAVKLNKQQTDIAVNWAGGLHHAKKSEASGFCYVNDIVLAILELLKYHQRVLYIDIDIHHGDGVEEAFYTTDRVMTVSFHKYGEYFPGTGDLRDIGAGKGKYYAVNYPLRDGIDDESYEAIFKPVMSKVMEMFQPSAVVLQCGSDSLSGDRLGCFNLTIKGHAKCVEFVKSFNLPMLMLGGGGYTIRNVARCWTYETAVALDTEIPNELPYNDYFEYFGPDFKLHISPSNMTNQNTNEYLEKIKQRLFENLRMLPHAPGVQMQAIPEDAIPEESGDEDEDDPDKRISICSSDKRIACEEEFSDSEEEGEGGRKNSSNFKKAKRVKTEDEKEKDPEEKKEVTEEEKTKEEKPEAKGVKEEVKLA

Q: `CN(c1ncc(C(=O)Nc2cc(-c3ccccc3)ccc2N)cn1)C1CCN(C(=O)Cc2c[nH]c3ccccc23)CC1` was tested. Which IC50 did it give?
A: 48 nM

Q: Which IC50 does the source give for `Nc1ccc(-c2ccccc2)cc1NC(=O)c1cnc(NC2CCN(C(=O)Cc3c[nH]c4ccccc34)CC2)nc1` here?
A: 22 nM

Q: For `CC1(Nc2ncc(C(=O)Nc3cc(-c4ccccc4)ccc3N)cn2)CCNCC1`, which IC50 is on record?
A: 14 nM

Source: ChEMBL document CHEMBL5726496, “Piperidine derivatives as HDAC1/2 inhibitors” (2017)
